The text below walks through data of patent US20040142923A1, “Pyrrolidine sulfonamides” (priority 2003, published 2004).

SMILES strings stand for the structures.

For the assay, the target named is human and rat GPR-14. As to the kind of experiment: Radioligand binding ([125I] h-U-II). The note with it: radioligand binding assay; HEK-293 cell membranes, 200 pM [125I] h-U-II; species (human or rat) not given. Here is the method: HEK-293 cell membranes containing stable cloned human and rat GPR-14 (20 ug/assay) were incubated with 200 pM [125I] h-U-II (200 Ci/mmol^−1 in the presence of increasing concentrations of test compounds in DMSO (0.1 nM to 10 uM), in a final incubation volume of 200 ul (20 mM Tris-HCl, 5 mM MgCl2). Incubation was done for 30 minutes at room temperature followed by filtration GF/B filters with Brandel cell harvester. ^125I labeled U-II binding was quantitated by gamma counting. Nonspecific binding was defined by ^125I U-II binding in the presence of 100 nM of unlabeled human U-II. Analysis of the data was performed by nonlinear least square fitting.

Turning to `O=C(NC1CCN(S(=O)(=O)c2cc(Cl)c(OC3CCNCC3)c(Cl)c2)C1)c1ccc(Cl)c(Cl)c1` (stereo not shown) [Example 5], the Ki (usually a dissociation constant, usually derived from enzyme kinetics or from competition with a known ligand) is 1500 nM.
